Here are results for 30 compounds from patent publication US10099993B2, “Metabotropic glutamate receptor positive allosteric modulators (PAMS) and uses thereof” (Sanford-Burnham Medical Research Institute, priority 2014, dated 2018).

One experiment addresses mGlu2 (Rattus norvegicus (Rat), UniProt P31421). Briefly: mGlu2 GIRK thallium flux assay.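 On all read-outs here: Cell-based assay, rate of fluorescence rise right after thallium plus agonist addition read on a kinetic imaging plate reader, normalized to vehicle and maximal agonist control.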 The note with it: for EC50: read-out: mGlu2 PAM EC50, test compound, then EC20 glutamate […] later in the presence of thallium; for Emax: read-out: mGlu2 PAM Max.
For another experiment, the target named is mGlu3 (Rattus norvegicus (Rat), UniProt P31422). The experiment can be described thus: mGlu3 GIRK thallium flux assay.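 On all read-outs here: kinetic fluorescence slope read shortly after thallium plus agonist addition, scaled between vehicle and maximal agonist control.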 The note with it: for EC50: read-out: mGlu3 PAM EC50, test compound, then EC20 glutamate […] later in the presence of thallium; for Emax: read-out: mGlu3 PAM Max.
Chain of mGlu3 (P31422 23-879): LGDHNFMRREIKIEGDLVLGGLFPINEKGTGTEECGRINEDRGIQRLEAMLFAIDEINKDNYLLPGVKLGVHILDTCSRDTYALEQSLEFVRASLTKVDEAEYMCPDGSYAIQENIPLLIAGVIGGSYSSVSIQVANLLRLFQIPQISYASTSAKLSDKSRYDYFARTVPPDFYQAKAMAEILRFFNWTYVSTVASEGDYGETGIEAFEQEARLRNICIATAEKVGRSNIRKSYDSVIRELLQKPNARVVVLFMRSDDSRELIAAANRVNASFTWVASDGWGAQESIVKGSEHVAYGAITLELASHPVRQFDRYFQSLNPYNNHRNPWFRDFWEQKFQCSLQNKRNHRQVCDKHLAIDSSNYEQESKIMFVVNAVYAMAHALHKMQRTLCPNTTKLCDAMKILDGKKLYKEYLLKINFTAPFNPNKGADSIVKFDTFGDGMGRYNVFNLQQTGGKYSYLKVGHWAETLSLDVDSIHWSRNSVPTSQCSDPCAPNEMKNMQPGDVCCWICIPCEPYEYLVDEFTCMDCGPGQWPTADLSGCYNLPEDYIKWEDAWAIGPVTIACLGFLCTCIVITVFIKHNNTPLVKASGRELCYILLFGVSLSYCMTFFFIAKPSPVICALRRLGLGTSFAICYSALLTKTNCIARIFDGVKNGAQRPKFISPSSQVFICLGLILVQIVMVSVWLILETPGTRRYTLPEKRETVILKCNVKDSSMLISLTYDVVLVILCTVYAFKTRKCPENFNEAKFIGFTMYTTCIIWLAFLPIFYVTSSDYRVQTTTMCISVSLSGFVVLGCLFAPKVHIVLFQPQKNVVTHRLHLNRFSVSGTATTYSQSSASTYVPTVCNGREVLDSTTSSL
[1] abbreviates: PAM mode, mean ± SEM, at least three experiments.

Chain of mGlu2 (P31421 19-872): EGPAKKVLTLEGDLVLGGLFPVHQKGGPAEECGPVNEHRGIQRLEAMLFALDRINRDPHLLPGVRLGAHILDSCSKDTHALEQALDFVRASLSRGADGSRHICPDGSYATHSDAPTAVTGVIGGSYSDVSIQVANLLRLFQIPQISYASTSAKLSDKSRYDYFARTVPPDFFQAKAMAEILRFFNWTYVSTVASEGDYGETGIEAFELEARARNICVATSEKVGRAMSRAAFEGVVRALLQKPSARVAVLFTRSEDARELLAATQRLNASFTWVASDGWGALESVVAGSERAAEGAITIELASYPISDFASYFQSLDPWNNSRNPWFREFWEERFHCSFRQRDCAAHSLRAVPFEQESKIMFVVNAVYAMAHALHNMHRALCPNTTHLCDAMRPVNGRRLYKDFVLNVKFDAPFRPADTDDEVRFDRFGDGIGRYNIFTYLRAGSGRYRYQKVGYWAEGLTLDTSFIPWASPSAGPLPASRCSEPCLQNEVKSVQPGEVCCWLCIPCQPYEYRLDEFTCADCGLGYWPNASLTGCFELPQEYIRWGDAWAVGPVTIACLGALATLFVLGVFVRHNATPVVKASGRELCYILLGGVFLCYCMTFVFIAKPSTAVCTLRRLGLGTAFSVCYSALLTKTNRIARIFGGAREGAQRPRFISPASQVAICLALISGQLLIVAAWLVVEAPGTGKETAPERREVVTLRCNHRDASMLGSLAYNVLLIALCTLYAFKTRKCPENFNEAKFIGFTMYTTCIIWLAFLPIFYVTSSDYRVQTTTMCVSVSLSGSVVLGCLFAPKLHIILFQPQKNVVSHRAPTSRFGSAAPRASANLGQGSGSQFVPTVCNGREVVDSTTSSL

The term EC50 denotes the concentration that produces a half-maximal response. As for `Cc1c(OCc2cccc(-c3ccc(C(=O)O)cc3Cl)c2)ccc(C(=O)CC(C)(C)C)c1O` [compound 147, 2-Chloro-3′-((4-(3,3-dimethylbutanoyl)-3-hydroxy-2-methylphenoxy)methyl)-[1,1′-biphenyl]-4-carboxylic acid], the EC50 at mGlu2 (setting [1]) was determined as 0.46 ± 0.158 µM; at mGlu3 (PAM mode, mean ± SEM) it was 2.28 ± 0.827 µM. The Emax at mGlu2 came to 98.6 ± 5.7%; on mGlu3, 81.4 ± 9.7%. `COC(=O)c1ccc(OCCCCOc2ccc(C(=O)CC(C)C)c(C)c2C)cc1` [Compound 14, Methyl 4-(4-(2,3-dimethyl-4-(3-methylbutanoyl)phenoxy)butoxy)benzoate]: the EC50 was more than 30 µM at mGlu2 (setting [1]) and more than 30 µM at mGlu3 (PAM mode, mean ± SEM). `CC(=O)c1ccc(OCCCCOc2ccc(F)c(C(=O)O)c2)c(C)c1O` [Compound 55, 5-(4-(4-Acetyl-3-hydroxy-2-methylphenoxy)butoxy)-2-fluorobenzoic acid]: the EC50 at mGlu3 (PAM mode, mean ± SEM) is more than 30 µM. For `Cc1c(OCc2cccc(-c3ccc(Cl)c(C(=O)O)c3)c2)ccc(C(=O)CC2CCCC2)c1C` [compound 171], the “mGlu2 PAM Max” value at mGlu2 (PAM mode, % Glutamate Max, mean ± SEM, at least three experiments) was found to be 12.3 ± 1.2%. Moreover, the EC50 was more than 30 µM on mGlu2 (setting [1]) and more than 30 µM at mGlu3 (PAM mode, mean ± SEM). Also, the “mGlu3 PAM Max” value at mGlu3 (PAM mode, % Glutamate Max, mean ± SEM) is given as 10.7 ± 1.0%. `Cc1c(OCc2ncc(-c3cccc(C(=O)O)c3)s2)ccc(C(=O)CC(C)(C)C)c1O` [compound 161, 3-(2-((4-(3,3-Dimethylbutanoyl)-3-hydroxy-2-methylphenoxy)methyl)thiazol-5-yl)benzoic acid]: the EC50 at mGlu2 (setting [1]) is 1.878 ± 0.017 µM; at mGlu3 (PAM mode, mean ± SEM), 3.19 ± 0.068 µM. The Emax at mGlu2 came out at 98.2 ± 5.2%; on mGlu3, 114 ± 3.9%. Turning to `Cc1c(OCCCCOc2ccc(CCC(=O)O)c(O)c2)ccc(C(=O)CC(C)C)c1O` [Compound 5, reference compound], the half-maximal effective concentration (EC50) on mGlu3 (PAM mode, mean ± SEM) is more than 30 µM. Turning to `CC(C)(C)CC(=O)c1ccc(OCc2cccc(-c3cccc(C(=O)O)c3)c2)c(I)c1O` [Compound 192, 3′-((4-(3,3-Dimethylbutanoyl)-3-hydroxy-2-iodophenoxy)methyl)-[1,1′-biphenyl]-3-carboxylic acid], the figures for the Emax on mGlu2 and at mGlu3 were 82 ± 5.1% and 62.6 ± 9.7%, respectively. Turning to `Cc1c(OCCCCOc2ccc(F)c(C(=O)O)c2)ccc(C(=O)CC(C)C)c1C` [Compound 34, 5-(4-(2,3-Dimethyl-4-(3-methylbutanoyl)phenoxy)butoxy)-2-fluorobenzoic acid], the concentration giving a half-maximal response (EC50) on mGlu2 (setting [1]) was more than 30 µM; on mGlu3 (PAM mode, mean ± SEM), more than 30 µM. For the compound `Cc1c(OCCCCSc2ccccn2)ccc(C(=O)CC(C)C)c1O` [Compound 184], the EC50 on mGlu2 (setting [1]) is more than 10 µM; at mGlu3 (PAM mode, mean ± SEM), more than 30 µM. As to `Cc1c(OCCCCOc2ccccn2)ccc(C(=O)CC2CCCC2)c1O` [Compound 186], the EC50 was more than 10 µM on mGlu2 (setting [1]) and more than 30 µM at mGlu3 (PAM mode, mean ± SEM). For the compound `Cc1c(OCc2cccc(COc3ccc(C#N)cc3)c2)ccc(C(=O)CC(C)C)c1O` [compound 118], the concentration for a half-maximal effect (EC50) on mGlu2 (setting [1]) is more than 30 µM; at mGlu3 (PAM mode, mean ± SEM), more than 30 µM.

In the case of `Cc1c(OCc2cccc(COc3ccc(C#N)cc3)c2)ccc(C(=O)CC2CCCC2)c1C` [compound 154], the EC50 was more than 30 µM on mGlu2 (setting [1]) and more than 30 µM at mGlu3 (PAM mode, mean ± SEM).

Turning to `Cc1c(OCCCCOc2ccc(C(=O)O)cc2)ccc(C(=O)CC(C)C)c1C` [Compound 18, 4-(4-(2,3-Dimethyl-4-(3-methylbutanoyl)phenoxy)butoxy)benzoic acid], the 50% effective concentration (EC50) on mGlu2 (setting [1]) was more than 30 µM; at mGlu3 (PAM mode, mean ± SEM), more than 30 µM.

With `CC(=O)c1ccc(OCCCCOc2cccc(C(=O)O)c2C)c(C)c1O` [Compound 54, 3-(4-(4-Acetyl-3-hydroxy-2-methylphenoxy)butoxy)-2-methylbenzoic acid], on mGlu3 (PAM mode, mean ± SEM), the EC50 was more than 30 µM. In the case of `Cc1c(OCCCCSc2ccncc2)ccc(C(=O)CC(C)C)c1C` [Compound 189], the EC50 is more than 30 µM at mGlu2 (setting [1]) and more than 30 µM on mGlu3 (PAM mode, mean ± SEM).

For the compound `COC(=O)c1ccc(OCCCCOc2ccc(C(=O)CC(C)C)c(O)c2C)cc1` [Compound 16, Methyl 4-(4-(3-hydroxy-2-methyl-4-(3-methylbutanoyl)phenoxy)butoxy)benzoate], the concentration giving a half-maximal response (EC50) is more than 30 µM at mGlu2 (setting [1]) and more than 30 µM at mGlu3 (PAM mode, mean ± SEM).

On to `COc1cc(C(=O)O)ccc1OCCCCOc1ccc(C(C)=O)c(O)c1C` [Compound 52, 4-(4-(4-Acetyl-3-hydroxy-2-methylphenoxy)butoxy)-3-methoxybenzoic acid], for which the EC50 on mGlu3 (PAM mode, mean ± SEM) was more than 30 µM. `Cc1c(OCCCCOc2ccc(C(=O)O)c(Cl)c2)ccc(C(=O)CC(C)C)c1C` [Compound 30, 2-Chloro-4-(4-(2,3-dimethyl-4-(3-methylbutanoyl)phenoxy)butoxy)benzoic acid]: the EC50 at mGlu3 (PAM mode, mean ± SEM) was more than 30 µM. Turning to `Cc1cc(C(=O)O)ccc1OCCCCOc1ccc(C(=O)C(C)C)c(O)c1C` [compound 66, 4-(4-(3-Hydroxy-4-isobutyryl-2-methylphenoxy)butoxy)-3-methylbenzoic acid], the half-maximal effective concentration (EC50) at mGlu3 (PAM mode, mean ± SEM) was more than 30 µM. Still for that read-out and setting: to `CCC(=O)c1ccc(OCCCCOc2ccc(C(=O)O)cc2C)c(C)c1O` [Compound 61, 4-(4-(3-Hydroxy-2-methyl-4-propionylphenoxy)butoxy)-3-methylbenzoic acid] belongs more than 30 µM. For `COc1ccc(C(=O)O)cc1-c1cncc(COc2ccc(C(=O)CC(C)(C)C)c(O)c2C)c1` [compound 160, 3-(5-((4-(3,3-Dimethylbutanoyl)-3-hydroxy-2-methylphenoxy)methyl)pyridin-3-yl)-4-methoxybenzoic acid], the Emax on mGlu3 was determined as 110 ± 2.4%. On to `CCC(=O)c1ccc(OCCCCOc2ccc(C(=O)O)cc2OC)c(C)c1O` [Compound 57, 4-(4-(3-Hydroxy-2-methyl-4-propionylphenoxy)butoxy)-3-methoxybenzoic acid], for which the half-maximal effective concentration (EC50) at mGlu3 (PAM mode, mean ± SEM) is more than 30 µM. As to `Cc1c(OCCCCOc2ccccc2C(=O)O)ccc(C(=O)CC2CCCC2)c1C` [Compound 27, 2-(4-(4-(2-Cyclopentylacetyl)-2,3-dimethylphenoxy)butoxy)benzoic acid], the half-maximal effective concentration (EC50) on mGlu3 (PAM mode, mean ± SEM) is more than 30 µM. With `CC(=O)c1ccc(OCCCCOc2ccc(C(=O)O)cc2C)c(C)c1O` [Compound 56, 4-(4-(4-Acetyl-3-hydroxy-2-methylphenoxy)butoxy)-3-methylbenzoic acid], the concentration giving a half-maximal response (EC50) at mGlu3 (PAM mode, mean ± SEM) was more than 30 µM. The same measure, in the same setting: the value for `COc1cc(C(=O)O)ccc1OCCCCOc1ccc(C(=O)C(C)C)c(O)c1C` [Compound 62, 4-(4-(3-Hydroxy-4-isobutyryl-2-methylphenoxy)butoxy)-3-methoxybenzoic acid] was more than 30 µM; that for `Cc1c(OCCCCOc2ccc(C(=O)C(C)C)c(O)c2C)cccc1C(=O)O` [compound 64, 3-(4-(3-Hydroxy-4-isobutyryl-2-methylphenoxy)butoxy)-2-methylbenzoic acid] was more than 30 µM; that for `COc1ccc(C(=O)O)cc1OCCCCOc1ccc(C(C)=O)c(O)c1C` [Compound 53, 3-(4-(4-Acetyl-3-hydroxy-2-methylphenoxy)butoxy)-4-methoxybenzoic acid] was more than 30 µM. `CCC(=O)c1ccc(OCCCCOc2cccc(C(=O)O)c2C)c(C)c1O` [Compound 59, 3-(4-(3-Hydroxy-2-methyl-4-propionylphenoxy)butoxy)-2-methylbenzoic acid]: at mGlu3 (PAM mode, mean ± SEM), the EC50 was more than 30 µM. As to `Cc1c(OCCCCOc2ccccc2C(=O)O)ccc(C(=O)CC(C)C)c1O` [Compound 28, 2-(4-(3-Hydroxy-2-methyl-4-(3-methylbutanoyl)phenoxy)butoxy)benzoic acid], the EC50 at mGlu3 (PAM mode, mean ± SEM) is more than 30 µM. Take `Cc1c(OCCCCOc2ccccc2C(=O)O)ccc(C(=O)CC2CCCC2)c1O` [Compound 29, 2-(4-(4-(2-Cyclopentylacetyl)-3-hydroxy-2-methylphenoxy)butoxy)benzoic acid]: the half-maximal effective concentration (EC50) at mGlu3 (PAM mode, mean ± SEM) is more than 30 µM.
